Measured values taken from PMC3734285, “Expression and Function of the Lipocalin-2 (24p3/NGAL) Receptor in Rodent and Human Intestinal Epithelia” (PLoS ONE, 2013).
Read-outs that look alike come from different tables or passages of the source. Numbered stars: 1 amine (or outer) side, 2 acyl side, 3 side chain; on linkers, the order of the positions; unused ones are H or OH. Square brackets hold non-standard residues; d marks the D form. Peptide text beside a SMILES is read from it. * marks the point of attachment. X1 = N=c1ccc2c(-c3ccc(C(=O)*)cc3C(=O)O)c3ccc(N)c(S(=O)(=O)O)c3oc-2c1S(=O)(=O)O; γGlu = O=C(O)[C@H](CCC(=O)[*:2])N[*:1]

What was measured:
[1] = tested on: colon-like Caco-2 BBE cell monolayers; assay: Apical-to-basolateral transcytosis of fluorescence-labelled ligands across Transwell monolayers; type: in vitro ADME, human; conditions: colon-like Caco-2 BBE monolayers on Transwell, A-B, 700 nM ligand apical, control conditions (no hNGAL), fluorescence read-out; means ± SEM, n = 9-14
Protocol: For transyctosis studies Costar Transwell® culture inserts placed on 24-well plates were used (0.4 µM PE membrane, 0.33 cm^2 filter area. Corning Inc., Corning, NY, USA). Briefly, 1.3 ml of Caco-2 BBE medium with 10% FBS was added to the basolateral compartment and Caco-2 BBE colon-like cells were plated at a density of 5 x 10^4 cells/insert in 400 µl medium with 10% FBS added to the apical compartment. The transepithelial electrical resistance (TEER) across the cell monolayer was measured after 0, 24, 48, 72 h culture as well as before and after each experiment. The medium was replaced after 48 h on both, top (apical) and bottom (basolateral) compartments of the culture inserts. […] Before each experiment, the apical medium was replaced by 400 µl medium containing 1% FBS medium and the appropriate fluorescence-labelled ligand at a final concentration of 700 nM with or without 500 pM hNGAL whereas the basolateral medium with 10% FBS remained unchanged. At each experimental time point, 10 µl of the basolateral and the apical medium was removed, frozen at -80° C and subsequently analyzed for fluorescence intensity using standard capillaries in a Monolith NT.015 (NanoTemper Technologies GmbH, Munich, Germany). Data were quantified by semi-logarithmic plotting against standards obtained from stock solutions of fluorescent ligands. […]

[2] = tested on: colon-like Caco-2 BBE cells; assay: Internalization of fluorescence-labelled ligands, immunofluorescence microscopy; type: cell-based, human; conditions: for Kd: 24 h, up to 5.6 µM A488-PC3, FBS-free medium, 5-6 experiments
Protocol: The full-length clone of rat r24p3-R was transiently transfected into CHO cells 24 h after seeding using Lipofectamine 2000, as described previously. Forty eight hours after transfection, r24p3-R- and empty vector (pcDNA3.1)-transfected cells were incubated for 24 h with 0-2.8 µM A488-PC3, as described previously for A546-MT [24]. Colon- or duodenum-like Caco-2 BBE cells were seeded at a density of 50,000 cells/coverslip and grown for 48 h before addition of different concentrations of A488-PC3 or A546-MT ± hNGAL for 24 h in FBS-free medium. Cells were stained with primary α-NT-24p3-R antibody (1:100) and secondary Cy3-coupled anti-rabbit IgG (1:600) for A488-PC3 uptake or with A546-conjugated anti-rabbit IgG (1:600) for A546-MT uptake.
For each experiment, 5-10 images were acquired and quantified as described earlier. For determination of r24p3-R-dependent fluorescence uptake in CHO cells, values in vector-transfected cells were subtracted from values obtained in the corresponding r24p3-R-transfected cells. […] To determine hNGAL-R-specific uptake of fluorescent dye-labeled proteins in Caco-2 BBE cells 5 images of fields with clusters of hNGAL-R expressing Caco-2 BBE cells and 5 images of clusters of Caco-2 BBE cells not expressing hNGAL-R were analyzed in the absence or presence of the ligand of the hNGAL-R, hNGAL/lipocalin-2 (500 pM).
Unless otherwise indicated, the experiments were repeated at least three times and means ± S.D. were calculated, unless otherwise indicated. Analysis by unpaired Student’s t test or one-way ANOVA assuming equality of variance with Newman-Keuls Multiple Comparison test and Dunnett’s post-hoc test was performed with GraphPad Prism 5.0. […] Transcytosis data fitted using a one-phase exponential decay function. All curve fits were done with GraphPad Prism 5.0. Results with P < 0.05 were considered to be statistically significant.

| Compound | basolateral delivery (AUC over 8 h) [1] [nM x 8 h] | Kd ([2]; read-out: first app KD of A488-PC3 internalization (two-site binding fit)) [nM] | Kd ([2]; read-out: second app KD of A488-PC3 internalization (two-site binding fit)) [nM] | effect of 500 pM hNGAL on uptake of 0.7 µM ligand ([2]; 24 h incubation, 0.7 µM ligand with 500 pM hNGAL, 4-5 experiments) |
| --- | --- | --- | --- | --- |
| N=c1ccc2c(-c3ccc(C(=O)N[C@@H](CCC(=O)N[C@@H](CS)C(=O)N[C@@H](CCC(=O)N[C@@H](CS)C(=O)N[C@@H](CCC(=O)N[C@@H](CS)C(=O)NCC(=O)O)C(=O)O)C(=O)O)C(=O)O)cc3C(=O)O)c3ccc(N)c(S(=O)(=O)O)c3oc-2c1S(=O)(=O)O [A488-PC3] ({X1-γGlu}-C[γGlu]C[γGlu]CG-OH; N-terminus and C-terminus assumed) | 299.4 ± 18.7 | ~90 | ~300 | significantly reduced |
| A546-Tf: Alexa Fluor 546-labelled transferrin from human serum (Molecular Probes) | 402.4 ± 28.0 | – | – | – |
